Test results taken from patent US20250137054A1, “COMPOSITION AND METHOD FOR EVALUATING RESPONSIVENESS OF EDARAVONE” (MITSUBISHI TANABE PHARMA CORPORATION, priority 2022, published 2025).

Key:
[1] = tested on: ALS patient-derived neurons (iPS cell-derived motor neurons, heterozygous TARDBP mutation); experiment: Evaluation of cellular damage by live cell imaging, ALS patient-derived neurons; assay type: cell-based, human; details: edaravone 30 μM, 24 hours
Description: (§1) Human induced pluripotent stem (iPS) cells were induced from cells derived from an ALS patient and cells derived from a healthy individual using a conventional method. The cells derived from the ALS patient were used that are known to have an ALS risk mutation as a heterozygous mutation in the TARDBP gene. Each iPS cell was differentiated into a motor neuron (hereinafter, also simply referred to as a “neuron”) using a conventional method. […]
(§2) A treatment was performed in which the culture medium dissolved with a dimethyl sulfoxide (DMSO) solution of the evaluation compound (edaravone) (final concentration: edaravone 30 μM, DMSO 0.03% v/v) was brought into contact with the neurons after 7 days of cultivation, and occurrence of cellular damage was evaluated over time. […]
(§3) Evaluation of cellular damage was performed by live cell imaging using IncuCyte S3 (Sartorius) and Cytotox (Sartorius, 4846) according to an attached protocol. The neurite length per unit area (unit: mm/mm^2) and the number of dead cells (unit: count/image) were analyzed over time and used as evaluation indicators. […]

[2] = tested on: TDP-43 in ALS patient-derived neurons; experiment: TDP-43 localization evaluation, ALS patient-derived neurons; assay type: cell-based, human; details: edaravone treatment, after 24 hours, DMSO group = 100 (FIG. 15)
From the text: as §1
Intracellular localization of TDP-43 polypeptides was evaluated by immunofluorescence staining of neurons. […] After further nuclear staining, washing with PBS, and imaging under a fluorescence microscope were performed. The captured images were analyzed using Matlab (Mathworks), and fluorescence intensities of TDP-43 in a nuclear region and in a cytoplasmic region were respectively calculated. […]
Regarding the intracellular localization of TDP-43 polypeptides, the nuclear and cytoplasmic TDP-43 fluorescence intensities and the cytoplasmic/nuclear TDP-43 intensity ratios in ALS cells and healthy cells are shown in FIG. 15. […]

[3] = tested on: disease model cells (neurons derived from the 1464R cell line forcibly expressing wild-type and mutant TDP-43); experiment: Evaluation of cell protection using chromogenic substrate (Cell Counting Kit-8), with EA; assay type: cell-based, rat; details: Eda 1-200 μmol/L 24 h, then EA 20 μmol/L 24 h; vs Comparative Example 1 (FIG. 3)
Description: Using both vectors (a) and (b), the differentiated cell line in the infection medium was infected with adenovirus at a multiplicity of infection of 50, and cultured for 24 hours. As a result, neurons derived from the 1464R cell line, in which both wild-type and mutant TDP-43 were forcibly expressed intracellularly (hereinafter, also referred to as disease model cells), were obtained.
After that, a cell toxicity measurement kit (Cell Counting Kit-8, manufactured by DOJINDO) was used to expose the cells in each group according to a product protocol, and an amount of chromogenic substrate produced was measured by absorbance at 450 nm.
With this kit, the more viable cells present, the more chromogenic substrate is produced, resulting in a higher absorbance value at 450 nm. Therefore, a higher absorbance at 450 nm indicates a greater number of viable cells.
The data shown in FIG. 3 are all expressed as mean±standard error of the mean (SEM, n=4 for each). In FIG. 3, the symbol “##” indicates a statistically significant difference of p<0.01 compared to Comparative Example 1 (determined by Student t-test). In FIG. 3, the symbol “*” indicates a statistically significant difference of p<0.05 compared to Comparative Example 1, and the symbol “**” indicates a statistically significant difference of p<0.01 compared to Comparative Example 1 (both determined by Williams' multiple comparison test).

[4] = tested on: healthy individual-derived neurons (iPS cell-derived motor neurons); experiment: Evaluation of cellular damage by live cell imaging, healthy individual-derived neurons; assay type: cell-based, human; details: edaravone 30 μM, 24 hours
Description: as §1, §2, §3

[5] = vs DMSO-treated group (FIG. 13)
[6] = vs DMSO-treated group (FIG. 14)

## CC1=NN(c2ccccc2)C(=O)C1 [edaravone, 5-methyl-2-phenyl-2,4-dihydro-3H-pyrazol-3-one]
[1]; [5]
  neurite length (rate of change, DMSO group = 100): significantly increased
[1]; [6]
  number of dead neurons (rate of change, DMSO group = 100): significantly decreased
[2]
  cytoplasmic TDP-43 intensity: significantly decreased
  cytoplasmic/nuclear TDP-43 intensity ratio: significantly decreased
[3]
  absorbance at 450 nm (number of viable cells): increased in an Eda concentration-dependent manner
[4]; [5]
  neurite length (rate of change, DMSO group = 100): no significant change
[4]; [6]
  number of dead neurons (rate of change, DMSO group = 100): no significant change
